{
  "source": "patent US20240343722A1",
  "about": "(VIFOR (INTERNATIONAL) AG, priority 2021, published 2024)",
  "key": {"ferroportin (Fpn) [1]": {"target": "T1, ferroportin (Fpn) (Mus musculus, UniProt Q9JHI9)", "T1 construct": "endogenous in cells; host or cells: J774 mouse macrophage cell line, induced with Fe(III)NTA", "T1 sequence (Q9JHI9 1-570)": "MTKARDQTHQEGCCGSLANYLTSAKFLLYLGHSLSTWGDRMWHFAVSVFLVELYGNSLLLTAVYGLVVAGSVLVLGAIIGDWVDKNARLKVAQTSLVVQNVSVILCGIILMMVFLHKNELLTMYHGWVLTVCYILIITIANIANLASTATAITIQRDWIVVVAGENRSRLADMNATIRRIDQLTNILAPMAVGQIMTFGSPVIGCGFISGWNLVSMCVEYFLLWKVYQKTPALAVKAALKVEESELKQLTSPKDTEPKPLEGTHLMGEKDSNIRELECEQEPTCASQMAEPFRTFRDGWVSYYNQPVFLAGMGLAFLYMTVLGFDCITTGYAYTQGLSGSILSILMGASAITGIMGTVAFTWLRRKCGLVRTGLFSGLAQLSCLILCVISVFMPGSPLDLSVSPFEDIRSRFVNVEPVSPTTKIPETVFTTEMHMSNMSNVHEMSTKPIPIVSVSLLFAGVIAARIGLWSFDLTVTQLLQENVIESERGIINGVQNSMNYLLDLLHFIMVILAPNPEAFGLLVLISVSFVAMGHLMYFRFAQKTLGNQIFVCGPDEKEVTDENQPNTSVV", "assay": "Hepcidin Internalization Assay (J774)", "format": "cell-based", "conditions": "Average (AVE) IC50 of multiple measurements; inhibition of TMR-hepcidin (25 nM) internalization into J774 cells", "outline": "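Mouse J774 cells; Fpn inhibition read as reduced internalization of TMR-labelled hepcidin, imaged by fluorescence microscopy with Hoechst 33342 co-stain after fixation. IC50 from Sum(Mean) TMR signal fitted to three- or four-parameter log(inhibitor) vs. response, whichever fit better.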"}, "ferroportin (Fpn) [2]": {"target": "T2, ferroportin (Fpn) (Homo sapiens, UniProt Q9NP59)", "T2 construct": "expressed in transfected cells; host or cells: HEK-293 cell line #354 (derivative of HEK-293 Tet-ON Advanced)", "T2 sequence (Q9NP59 1-571)": "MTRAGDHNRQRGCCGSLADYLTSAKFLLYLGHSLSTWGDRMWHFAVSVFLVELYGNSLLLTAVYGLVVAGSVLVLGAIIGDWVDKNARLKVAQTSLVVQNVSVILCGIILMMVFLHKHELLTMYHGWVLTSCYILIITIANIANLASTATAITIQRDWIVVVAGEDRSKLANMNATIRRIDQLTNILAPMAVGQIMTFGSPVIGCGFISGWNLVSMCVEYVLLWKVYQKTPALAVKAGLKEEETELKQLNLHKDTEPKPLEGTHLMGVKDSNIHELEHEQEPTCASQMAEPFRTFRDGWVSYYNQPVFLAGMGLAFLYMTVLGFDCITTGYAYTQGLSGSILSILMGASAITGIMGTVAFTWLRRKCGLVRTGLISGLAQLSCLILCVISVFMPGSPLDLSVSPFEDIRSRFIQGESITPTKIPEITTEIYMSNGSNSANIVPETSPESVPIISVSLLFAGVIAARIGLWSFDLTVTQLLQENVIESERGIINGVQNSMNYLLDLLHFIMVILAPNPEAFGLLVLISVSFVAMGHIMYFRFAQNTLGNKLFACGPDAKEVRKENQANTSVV", "assay": "Inhibition of Ferroportin mediated Iron Export Activity in an Iron Response Assay (BLA reporter, HEK-293 cell line #354)", "format": "cell-based", "conditions": "HEK-293 cell line #354, BLA reporter blue/green fluorescence ratio, n=37; read-out: EC50 of hepcidin in the iron response assay", "source_text": "Intracellular iron levels are indirectly measured in this assay by monitoring the activity of a beta-lactamase (BLA) reporter gene fused to the human ferritin promoter and the associated iron regulatory element (IRE) contained within the 5′ untranslated region of the ferritin mRNA. Expression of ferroportin (Fpn) in such a cell line leads to iron efflux and lower iron levels as reflected by lower activity of the reporter gene. On the other hand, inhibition of Fpn-mediated iron efflux results in elevated cellular iron levels which is detected as increased reporter gene activity."}},
  "data": [
    {"smiles": "COc1cccnc1CNC(=O)c1coc(CCNCCc2nc3cc4c(cc3n2CCc2ncco2)OCCO4)n1", "note": "[Example 95, N-((3-methoxypyridin-2-yl)methyl)-2-(2-((2-(1-(2-(oxazol-2-yl)ethyl)-6,7-dihydro-1 H-[1,4]dioxino[2′,3′:4,5]benzo[1,2-d]imidazol-2-yl)ethyl)amino)ethyl)oxazole-4-carboxamide]", "values": [
      {"measurement": "IC50", "setting": "ferroportin (Fpn) [1]", "value": 26, "unit": "nM"}
    ]},
    {"smiles": "COCCn1c(C2CN(CCc3nc(C(=O)NCc4ncccc4F)co3)C2)nc2ccccc21", "note": "[Example 96, N-((3-fluoropyridin-2-yl)methyl)-2-(2-(3-(1-(2-methoxyethyl)-1H-benzo[d]imidazol-2-yl)azetidin-1-yl)ethyl)oxazole-4-carboxamide]", "values": [
      {"measurement": "IC50", "setting": "ferroportin (Fpn) [1]", "value": 223, "unit": "nM"}
    ]},
    {"smiles": "CN(C)CCn1c(C2CN(CCc3nc(C(=O)NCc4ncccc4F)co3)C2)nc2ccccc21", "note": "[Example 97, 2-(2-(3-(1-(2-(dimethylamino)ethyl)-1H-benzo[d]imidazol-2-yl)azetidin-1-yl)ethyl)-N-((3-fluoropyridin-2-yl)methyl)oxazole-4-carboxamide]", "values": [
      {"measurement": "IC50", "setting": "ferroportin (Fpn) [1]", "value": 89, "unit": "nM"}
    ]},
    {"smiles": "CC[C@H](C)[C@@H]1NC(=O)[C@@H](NC(=O)[C@@H](NC(=O)[C@@H]2CCCN2C(=O)[C@H](Cc2ccccc2)NC(=O)[C@H](Cc2c[nH]cn2)NC(=O)[C@@H](NC(=O)[C@@H](N)CC(=O)O)[C@@H](C)O)[C@@H](C)CC)CSSC[C@@H](C(=O)N[C@@H](CCCCN)C(=O)N[C@H](C(=O)O)[C@@H](C)O)NC(=O)[C@@H]2CSSC[C@@H]3NC(=O)[C@@H]4CSSC[C@H](NC(=O)[C@H](Cc5ccccc5)NC1=O)C(=O)N[C@@H](CSSC[C@H](NC(=O)[C@H](CCCCN)NC(=O)[C@H](CO)NC(=O)[C@H](CCCNC(=N)N)NC(=O)[C@H](Cc1c[nH]cn1)NC3=O)C(=O)NCC(=O)N[C@@H](CCSC)C(=O)N2)C(=O)NCC(=O)N4", "note": "[hepcidin]", "values": [
      {"measurement": "EC50", "setting": "ferroportin (Fpn) [2]", "value": "~96", "unit": "nM"}
    ]}
  ]
}
